Tests used:
[1] = test system: wfs1ab^KO zebrafish larvae; experiment: Visual motor response in zebrafish larvae (hyperlocomotor response); assay type: in vivo
Procedure: The visual motor response assay quantifies the locomotor activity of the zebrafish larvae to light intensity changes. The protocol was previously described (Crouzier et al., 2021a, 2021b, 2022). In brief, 5 dpf larvae were transfered in a 96-well plate (#7701-1651, Whatman) with 300 µl of fish water and placed in a Zebrabox® (ViewPoint, Lissieu, France). The locomotor behavior was monitored using an automated videotracking device equipped with an infra-red (IR) camera under IR light illumination (Zebralab®, Viewpoint). The light protocol was as follow: 30 min of acclimatization in the dark (0% light intensity), then 2 cycles of 10-min duration light ON and 10-min duration light OFF periods. The brightness changes were immediate (<< 1 s). The activity was measured in mm/s. For each larva, the mobility were calculated as mean (OFF-ON) values to account for inter- and intra-group variability in locomotor response.
A phenotypic test described by Crouzier et al. (2022) was performed. […] Compounds were added in the fish water of larvae at 4 dpf for 24 h, and screening parameters included: (1) the lack of toxicity (including grossly observable morphological alterations) after 24 h exposure; (2) the locomotor increase in wfs1ab^KO larvae, expressed as % of V-treated wfs1ab^KO response; (3) the eventual alteration of locomotion in wfs1ab^WT larvae, expressed as % of V-treated wfs1ab^WT response; and (4) the Protection index (PI) calculated as detailed in the Methods section.

[2] = test system: Wfs1^ΔExon8 mice; experiment: Active avoidance in the rectangular water-maze, Wolfram syndrome mouse model; assay type: in vivo
Procedure: Non-spatial long-term memory was also examined using the successive training, place-learning procedure in the rectangular water-maze (Maurice et al., 1995, 2018). The apparatus is a black Plexiglas rectangular pool (30 × 60 × 36 cm high), filled with water at a high of 25 cm. The water temperature was maintained at 23 ± 1°C. A transparent Plexiglas platform (5 × 8.5 × 0.5 cm) was fixed in the southeast corner of the pool, 1 cm below the water surface. On acquisition days 1 and 2, each mouse was placed at the middle of the west side of the pool, facing the wall, and the latency to find the platform was recorded up to 60 s. The mouse was allowed to remain on it for 20 s, and then removed from the pool into its home cage. […] Each animal was run in this manner for a total of 5 trials on day 1, and 3 trials on day 2. […] A short-term memory (STM) index was defined as the mean difference in swimming duration between trial n and trial n-1 for trials 2 to 5 and 7 to 8. The STM index was analysed vs. zero level (= no improvement). On day 4, 48 h after the last training session, animals were tested for retention. The platform was removed. Each mouse was again placed at the starting point and observed for 60 s. The latency to reach the original platform location and the time spent on the platform location was recorded.

[3] = probe test without platform, no drug injection

COc1ccc(C(=O)OC2CC3CCC(C2)N3C)cc1OC (stereo not shown) [Convolamine, (8-methyl-8-azabicyclo[3.2.1]octan-3-yl) 3,4-dimethoxybenzoate]
hyperlocomotor response of wfs1ab^KO zebrafish larvae (in words) ([1]; 0.3-3 µM concentration-range): dose-dependently abolished
Protection index (PI) ([1]; 5 dpf larvae, 24 h exposure, 3 µM): 1.0
hyperlocomotor response of wfs1ab^KO zebrafish (in words) ([1]; at 3 µM in fish water): completely prevented
effect of convolamine on hyperlocomotor response under co-treatment with NE-100 (in words) ([1]; co-treatment with NE-100 at 3 µM): attenuated
mild deficit of STM index (in words) ([2]; IP 20 min before training sessions): not observed
latency to reach the platform location in the probe test (in words) [2, 3]: attenuated these differences
number of platform location crossings in the probe test (in words) [2, 3]: attenuated these differences
